The text below walks through data of ChEMBL document CHEMBL1133927, “Antimalarial t-butylperoxyamines” (Bioorg Med Chem Lett, 2001).

The source made the active and inactive calls. The calls are words filed in the database; no cut-off is given here. A value given as a limit tells only on which side of the number the result lay.

The subject of assay [1] is Mus musculus. The assay can be described thus: Mean survival time of mice (Mus musculus) infected with Plasmodium berghei after administration of compound at the dose of 20 mg/kg. It is filed as functional.
For assay [2], the system named is Plasmodium falciparum. Briefly: (§1) In vitro total parasite growth inhibition for chloroquine-sensitive Plasmodium falciparum FJB D9. Format: functional, organism-based.
Assay [3] deals with Mus musculus. The assay can be described thus: Mean survival time of mice (Mus musculus) infected with Plasmodium berghei after administration of compound at the dose of 160 mg/kg. It is filed as functional.
The subject of assay [4] is Mus musculus. The assay can be described thus: Mean survival time of mice (Mus musculus) infected with Plasmodium berghei after administration of compound at the dose of 40 mg/kg. It is filed as functional.
Assay [5] concerns Plasmodium falciparum. The assay can be described thus: (§2) In vitro schizont maturation inhibition for chloroquine-sensitive Plasmodium falciparum FSH 14. Format: functional.
Assay [6] concerns Mus musculus. The assay can be described thus: Mean survival time of mice (Mus musculus) infected with Plasmodium berghei after administration of compound at the dose of 80 mg/kg. Format: functional.
Assay [7] relates to Plasmodium falciparum. The assay can be described thus: (§3) In vitro schizont maturation inhibition for chloroquine-sensitive Plasmodium falciparum FJB D9. It is filed as functional, organism-based.
Assay [8] deals with Mus musculus. Briefly: In vivo antimalarial activity against Plasmodium berghei in mice (Mus musculus); Active at 160 mg/kg. It is filed as functional, organism-based. Further details: dose 160 mg/kg.
Assay [9] deals with Plasmodium falciparum. The assay can be described thus: (§4) In vitro total parasite growth inhibition for chloroquine-sensitive Plasmodium falciparum FSH 14. It is filed as functional, organism-based.
Assay [10] deals with Plasmodium falciparum. Described as §1. It is filed as functional.
In assay [11] the test system is Plasmodium falciparum. The assay is described as §3. Format: functional.
Assay [12] relates to Plasmodium falciparum. Described as §2. Format: functional, organism-based.
Assay [13] deals with Plasmodium falciparum. The assay is described as §4. Format: functional.
Assay [14] has as its system Mus musculus. The assay can be described thus: In vivo antimalarial activity against Plasmodium berghei in mice (Mus musculus); Inactive. Format: functional, organism-based.
The test system of assay [15] is Mus musculus. Briefly: In vivo antimalarial activity against Plasmodium berghei in mice (Mus musculus); Active at 80 and 160 mg/kg. Format: functional, organism-based. Also noted: dose 160 mg/kg.
In assay [16] the test system is Mus musculus. The assay can be described thus: In vivo antimalarial activity against Plasmodium berghei in mice (Mus musculus); In active. Format: functional, organism-based.
The subject of assay [17] is Mus musculus. Briefly: In vivo antimalarial activity against Plasmodium berghei in mice (Mus musculus); Active from 40 mg/kg. It is filed as functional, organism-based. Also noted: dose 40 mg/kg.

Turning to `CC(C)=CCCC(C)CCN(CCO)COOC(C)(C)C` (stereo not drawn), the Mean survival time with Mus musculus [1] was found to be 6.2 days; in the assay on Mus musculus [3], 15 days; in the assay on Mus musculus [4] it was 7.3 days; with Mus musculus [6], 11.2 days. The IC50 in the assay on Plasmodium falciparum [2] was 7.8 uM well-1; with Plasmodium falciparum [7], 3.2 uM well-1; with Plasmodium falciparum [9] it was 3.8 uM well-1; with Plasmodium falciparum [12] it was 1.4 uM well-1. Also, the IC90 in the assay with Plasmodium falciparum [5], with Plasmodium falciparum [10], with Plasmodium falciparum [11] and in the assay on Plasmodium falciparum [13] was more than 25 uM well-1 each time. The outcome in the assay on Mus musculus [8] was Active.

For `CC(C)(C)OOCN(Cc1ccccc1)Cc1ccco1`, the Mean survival time with Mus musculus [1] was 6.4 days; in the assay on Mus musculus [3], 12 days; in the assay on Mus musculus [4], 7.2 days; in the assay on Mus musculus [6] it was 10.8 days. Further, the IC50 in the assay on Plasmodium falciparum [2] amounted to 2.1 uM well-1; in the assay on Plasmodium falciparum [7] it was 1.45 uM well-1; in the assay with Plasmodium falciparum [9], 2.25 uM well-1; in the assay with Plasmodium falciparum [12], 1.35 uM well-1. Further, the IC90 in the assay on Plasmodium falciparum [5] was 4.5 uM well-1; with Plasmodium falciparum [10], 5.5 uM well-1; with Plasmodium falciparum [11] it was 2.8 uM well-1; in the assay with Plasmodium falciparum [13] it was 5.4 uM well-1. In the assay with Mus musculus [14], the outcome was inactive.

On to `CC(C)(C)OOCN(CCO)CCO`, for which the Mean survival time in the assay with Mus musculus [1] worked out at 10.2 days; in the assay with Mus musculus [3], 14 days; in the assay with Mus musculus [4], 11.6 days; in the assay with Mus musculus [6] it was 12.8 days. The IC50 is more than 25 uM well-1 with Plasmodium falciparum [2], 22 uM well-1 with Plasmodium falciparum [7], more than 25 uM well-1 in the assay with Plasmodium falciparum [9] and 10 uM well-1 in the assay on Plasmodium falciparum [12]. In addition, the IC90 with Plasmodium falciparum [5], with Plasmodium falciparum [10], in the assay on Plasmodium falciparum [11] and in the assay on Plasmodium falciparum [13] was more than 25 uM well-1 throughout. Also, the outcome in the assay with Mus musculus [15] was Active.

For the compound `COC1=CC=C2[C@H]3Cc4ccc(OC)c5c4[C@@]2(CCN3COOC(C)(C)C)[C@H]1O5`, the Mean survival time with Mus musculus [1] is 5.2 days; in the assay with Mus musculus [3] it was 7.2 days; in the assay on Mus musculus [4], 40 days; in the assay with Mus musculus [6] it was 6.8 days. Besides, the result in the assay on Mus musculus [16] was inactive. Moreover, the IC50 is 1.8 uM well-1 in the assay on Plasmodium falciparum [2], 0.135 uM well-1 with Plasmodium falciparum [7], 0.45 uM well-1 in the assay on Plasmodium falciparum [9] and 0.5 uM well-1 in the assay on Plasmodium falciparum [12]. Moreover, the IC90 with Plasmodium falciparum [5] was found to be 0.92 uM well-1; in the assay on Plasmodium falciparum [10] it was 6.4 uM well-1; in the assay with Plasmodium falciparum [11], 0.47 uM well-1; with Plasmodium falciparum [13], 5 uM well-1.

On to `CCN(CC)COOC(C)(C)C`, for which the Mean survival time in the assay on Mus musculus [1] is 7.2 days; with Mus musculus [3], 12.2 days; in the assay with Mus musculus [4], 8.4 days; in the assay on Mus musculus [6], 9.4 days. The IC50 in the assay on Plasmodium falciparum [2], in the assay with Plasmodium falciparum [7], in the assay on Plasmodium falciparum [9] and in the assay with Plasmodium falciparum [12] was more than 25 uM well-1 in each case. For the same compound, the IC90 with Plasmodium falciparum [5], in the assay on Plasmodium falciparum [10], in the assay on Plasmodium falciparum [11] and in the assay on Plasmodium falciparum [13] was more than 25 uM well-1 each time. Also, the result in the assay with Mus musculus [14] was inactive.

For the compound `CC(C)(C)OOCN1CCOCC1`, the Mean survival time was determined as 6.8 days in the assay on Mus musculus [1], 11.4 days with Mus musculus [3], 7.6 days in the assay with Mus musculus [4] and 8.8 days with Mus musculus [6]. In addition, the IC50 turned out to be 0.15 uM well-1 with Plasmodium falciparum [2], 0.058 uM well-1 in the assay with Plasmodium falciparum [7], 0.16 uM well-1 in the assay on Plasmodium falciparum [9] and 0.064 uM well-1 in the assay with Plasmodium falciparum [12]. The IC90 in the assay with Plasmodium falciparum [5] worked out at 2.9 uM well-1; with Plasmodium falciparum [10], 3 uM well-1; in the assay on Plasmodium falciparum [11], 2.6 uM well-1; in the assay on Plasmodium falciparum [13] it was 2.15 uM well-1. Also, in the assay with Mus musculus [14], the result was inactive.

Consider `CC(C)(C)OOCN1CCCCC1`, for which the Mean survival time stood at 5.2 days in the assay with Mus musculus [1], 10.2 days in the assay with Mus musculus [3], 6.6 days in the assay on Mus musculus [4] and 8.2 days in the assay on Mus musculus [6]. The IC50 with Plasmodium falciparum [2] was 5.5 uM well-1; with Plasmodium falciparum [7], 3.6 uM well-1; in the assay with Plasmodium falciparum [9] it was 5 uM well-1; in the assay with Plasmodium falciparum [12], 2.9 uM well-1. Also, the IC90 in the assay on Plasmodium falciparum [5] is 24 uM well-1; in the assay on Plasmodium falciparum [10] it was more than 25 uM well-1; in the assay with Plasmodium falciparum [11], 22.5 uM well-1; in the assay on Plasmodium falciparum [13], more than 25 uM well-1. Further, the result in the assay with Mus musculus [14] was inactive.

For the compound `C[C@@H]1CC[C@H]2[C@@H](C)C(=O)O[C@@H]3O[C@@]4(C)CC[C@@H]1[C@]32OO4` [ARTEMISININ], the Mean survival time in the assay on Mus musculus [1] worked out at 10.8 days. The IC50 is given as 0.015 uM well-1 in the assay on Plasmodium falciparum [2], 0.01 uM well-1 in the assay with Plasmodium falciparum [7], 0.01 uM well-1 with Plasmodium falciparum [9] and 0.01 uM well-1 with Plasmodium falciparum [12]. The IC90 in the assay with Plasmodium falciparum [5] is 0.028 uM well-1; with Plasmodium falciparum [10], 0.03 uM well-1; in the assay on Plasmodium falciparum [11] it was 0.028 uM well-1; in the assay with Plasmodium falciparum [13], 0.029 uM well-1. For the same compound, the outcome in the assay on Mus musculus [17] was Active.

Take `CC(C)(C)OOCN(Cc1ccccc1)Cc1cccs1`: the Mean survival time in the assay with Mus musculus [1] came out at 5.8 days; in the assay on Mus musculus [3], 14 days; in the assay on Mus musculus [4], 6.6 days; with Mus musculus [6], 10.2 days. The IC50 turned out to be 2.7 uM well-1 in the assay on Plasmodium falciparum [2], 0.9 uM well-1 in the assay on Plasmodium falciparum [7], 2.2 uM well-1 with Plasmodium falciparum [9] and 0.5 uM well-1 in the assay with Plasmodium falciparum [12]. Moreover, the IC90 with Plasmodium falciparum [5] was 11.5 uM well-1; with Plasmodium falciparum [10] it was 4.8 uM well-1; in the assay with Plasmodium falciparum [11] it was 6 uM well-1; in the assay on Plasmodium falciparum [13], 12 uM well-1. In addition, in the assay with Mus musculus [8], the outcome was Active.

Regarding `CC(C)(C)OOCN1CCCC1`, the Mean survival time in the assay with Mus musculus [1] came to 5.4 days; in the assay with Mus musculus [3] it was 11.8 days; with Mus musculus [4], 7 days; with Mus musculus [6], 9.8 days. In addition, the IC50 in the assay with Plasmodium falciparum [2], in the assay with Plasmodium falciparum [7], in the assay on Plasmodium falciparum [9] and with Plasmodium falciparum [12] was more than 25 uM well-1 throughout. For the same compound, the IC90 with Plasmodium falciparum [5], in the assay with Plasmodium falciparum [10], with Plasmodium falciparum [11] and in the assay on Plasmodium falciparum [13] was more than 25 uM well-1 throughout. Moreover, the outcome with Mus musculus [8] was Active.

In the case of `CC(C)=CCCC(C)CCN(COOC(C)(C)C)Cc1ccccc1` (stereo not drawn), the Mean survival time in the assay with Mus musculus [1] was 5.2 days; in the assay with Mus musculus [3], 12.2 days; in the assay with Mus musculus [4], 6.8 days; in the assay with Mus musculus [6], 10.8 days. Besides, the IC50 is 4.4 uM well-1 in the assay with Plasmodium falciparum [2], 1.6 uM well-1 with Plasmodium falciparum [7], 2.5 uM well-1 with Plasmodium falciparum [9] and 1.6 uM well-1 with Plasmodium falciparum [12]. The IC90 is recorded as 10 uM well-1 in the assay on Plasmodium falciparum [5], 10 uM well-1 with Plasmodium falciparum [10], 9 uM well-1 with Plasmodium falciparum [11] and 12 uM well-1 in the assay on Plasmodium falciparum [13]. Further, in the assay with Mus musculus [8], the outcome was Active.

In the case of `CC(C)(C)OOCN(C1CCCCC1)C1CCCCC1`, the Mean survival time worked out at 7.6 days in the assay with Mus musculus [1], 13.4 days in the assay on Mus musculus [3], 8.6 days in the assay with Mus musculus [4] and 9.8 days in the assay with Mus musculus [6]. The IC50 with Plasmodium falciparum [2] is reported as 5 uM well-1; in the assay with Plasmodium falciparum [7], 1.5 uM well-1; in the assay with Plasmodium falciparum [9], 5 uM well-1; in the assay with Plasmodium falciparum [12], 2.1 uM well-1. For the same compound, the IC90 with Plasmodium falciparum [5] is on record as more than 25 uM well-1; with Plasmodium falciparum [10], 25 uM well-1; with Plasmodium falciparum [11], 21 uM well-1; with Plasmodium falciparum [13], more than 25 uM well-1. Besides, the outcome in the assay on Mus musculus [8] was Active.
